Reference: US6689777B2 (Kenneth S. Warren Institute, priority 2001, dated 2004)
pIC50: −log10 of the molar value. Where two headings read alike, the source gives them in different places.

Tests used:
synthetic hemozoin = test: Depolymerization of synthetic hemozoin in vitro; assay type: biochemical; settings: 50 mM test compound, acetate buffer pH 5.0, 37° C., 16 hours
Method: This activity is evaluated by incubating a suspension of monomer-free hemozoin at 37° C. with compounds of the present invention for 16 hours. After incubation, hemozoin is separated from any solubilized heme and soluble heme oligomers, the oligomers depolymerized, and the heme present in the supernatants determined.
The synthesis of synthetic hemozoin is carried out as previously described (26). In brief, 60 μmoles of hematin was dissolved in 8 ml of 0.1N NaOH. Following dissolution 49 mmoles of glacial acetic acid was added and the suspension heated at 70° C. overnight. The precipitate was then washed extensively with LPS-free water. In order to remove unreacted heme the precipitate was extracted with 0.1M sodium bicarbonate (pH 9.1) for three hours. The remaining insoluble material was recovered by centrifugation, resuspended in EtOH and transferred to sterile Eppendorf tubes. The material was washed several times in EtOH and finally resuspended in LPS-free double-distilled H2O. The hemozoin preparation was then tested for endotoxin by using the Limulus Amebocyte Lysate test following manufacturer's instructions. Although the preparation of LPS-free hemozoin from native or synthetic sources is not critical for in vitro depolymerization studies, it is critical for studies involving monocytes and animals (see Examples below). Small amounts of LPS can evoke a considerable cytokine response and interfere with interpretation of results. The amount of heme in the final product was determined from a small aliquot using the pyridine-hemochrome method as previously described (26). The preparations are stored at 4° C. until used.
A suspension of monomer-free hemozoin (equivalent to 2 mM free heme) as prepared above was incubated at 37° C. with […] test compound in total volume of 500 μl in acetate buffer (pH: 5.0) in siliconized Eppendorf tubes (Brinkmann Instruments, Westbury, N.Y.) for 16 hours. A control sample containing distilled H2O instead of hemozoin was included. The samples were centrifuged at 14,000 rpm (Eppendorf centrifuge model 5415C, Brinkmann Instruments, Westbury, N.Y.) for 20 min; then 225 μl supernatant was diluted in 175 μl acetate buffer (pH 5.0). Another 225 μl was added to 175 μl 0.5 M NaOH to dissolve possible oligomeric depolymerization products to monomers. Half of the pellet was washed twice for 2.5 hr in 200 μl 2.5% SDS (v/v) in dH2O, the other half was washed twice in 200 μl HCO3^− buffer (pH: 9.1). Both sample supernatants and SDS and HCO3^− buffer supernatants were centrifuged 14,000 rpm for 20 min. and supernatants were added to 10 μl sodium dithionite (200 mg/ml dH2O) to reduce the heme monomers in solution to Fe^2+. All samples were measured in triplicate at 540 nm (Model UV1601 spectrophotometer, Shimradzu Corp, Columbia, Md.). The OD obtained from the blind sample was subtracted from the OD of the hemozoin containing sample.

[1] = system: P. falciparum chloroquine resistant strain (CQR); test: P. falciparum growth in culture, chloroquine resistant strain ([3H]-hypoxanthine incorporation); assay type: cell-based; settings: Plasmodium falciparum, Table 3, read-out: IC50 vs. P. falc. in CQR
Method: (§1) To determine the effectiveness of the compounds of the present invention against the erythrocytic stage of the malarial parasite, P. falciparum was grown in human erythrocyte suspensions and maintained at 37° C. in candle jars according to the method of Trager and Jensen (15,16). Parasites were stage-synchronized by incubating mainly ring-stage infected erythrocytes in 5% sorbitol for 10 minutes at room temperature (17). Cultures undergo one growth cycle (2 days) before use. Strains used include the chloroquine sensitive strains D10 and HB3, and the chloroquine resistant isolates Dd2 and FCR.
Parasite growth was determined by measuring incorporation of [^3H]-hypoxanthine into the nucleic acids of the parasite (18). Effects of the compounds of the present invention on parasite growth was determined by measuring the reduction in incorporation of radiolabel as compared to controls. […] After 18 h the plates are harvested onto glass fiber filter 96 well plates using a cell harvester, dried, and the amount of radioactivity is determined. […]
Parasite growth was determined by measuring incorporation of [^3H]-hypoxanthine into the nucleic acids of the parasite as previously described (23). Effects of the compounds of the present invention on parasite growth was determined by measuring the reduction in incorporation of radiolabel as compared to controls. […] The, amount of radioactivity was determined. […]

P. falciparum [2] = test: P. falciparum growth in culture ([3H]-hypoxanthine incorporation); assay type: cell-based; settings: Plasmodium falciparum, Table 3, naphthothiazolium salts, in culture, read-out: IC50 vs. P. falc.
P. falciparum [3] = test: as above; assay type: cell-based; settings: Table 2, aromatic bisguanylhydrazones; growth in culture, [3H]-hypoxanthine incorporation; read-out: IC50 vs. P. falc.
Method: as §1
Parasite growth was determined by measuring incorporation of [^3H]-hypoxanthine into the nucleic acids of the parasite (18). Effects of the compounds of the present invention on parasite growth was determined by measuring the reduction in incorporation of radiolabel as compared to controls. Briefly, assays are performed in 96-well microtiter plates. After 24 h of candle jar incubation at 37° C., [^3H]-hypoxanthine is added to each well. After 18 h the plates are harvested onto glass fiber filter 96 well plates using a cell harvester, dried, and the amount of radioactivity is determined. Drug IC50 values (molar concentration which decreases [^3H]-hypoxanthine incorporation by 50% as compared to drug-free controls) are calculated by extrapolation of the log dose-response curves using curve fitting software (Origin, Microcal Software, Northampton, Mass.).
Parasites were grown in A^+ human erythrocyte suspensions using RPMI-1640 (GIBCO, Gaithersburg, Md.) medium supplemented by 25 mM HEPES (pH 7.35), 0.2% NaHCO3 (23 mM), 0.2% (D)-Glucose and 10% human A^+ plasma and maintained at 37° C. in candle jars according to the method of Trager and Jensen (20,21) Parasites are stage synchronized by incubating mainly ring-stage infected erythrocytes in 5% sorbitol for 10 minutes at room temperature (22). Cultures undergo one growth cycle (2 days) before use. Strains used include the chloroquine sensitive strains D10 and HB3, and the chloroquine resistant isolates Dd2 and FCR.
Parasite growth was determined by measuring incorporation of [^3H]-hypoxanthine into the nucleic acids of the parasite as previously described (23). Effects of the compounds of the present invention on parasite growth was determined by measuring the reduction in incorporation of radiolabel as compared to controls. Briefly, assays were performed in 96-well microtiter plates, each well containing 200 μl of synchronized ring-stage infected erythrocytes in complete media and 50 μl of drug dilution or solvent. The final hematocrit was 1.5% and percent parasitemias range from 2-8%. After 24 h of candle jar incubation at 37° C., 2.5 μCi of [^3H]-hypoxanthine (17 Ci/mmol, Amersham, Arlington Heights, Ill.) in RPMI-1640 media supplemented with 25 mM HEPES (pH 7.35), 0.2% NaHCO3 (23 mM), 0.2% (D)-Glucose is added to each well. After 18 h the plates were harvested onto glass fiber filter 96 well plates using a cell harvester, dried, and 25 μl scintillation acid added per well. The, amount of radioactivity was determined. Drug IC50 values (molar concentration which decreases [^3H]-hypoxanthine incorporation by 50% as compared to drug-free controls) are calculated by extrapolation of the log dose-response curves using curve fitting software (Origin, Microcal Software, Northampton, Mass.). The effects on parasite grown by aromatic guanyllhydrazones, bisguanylhydrazones, naphthothiazolium salts, and other compounds of the instant invention, together with data on hemozoin depolymerization from Example 5, are shown in tables 1 through 4, respectively.

[4] = system: hemozoin ingested by human monocytes; test: Breakdown of macrophage-ingested hemozoin; assay type: cell-based; settings: 25 μM compound, FIG. 1
Method: A further evaluation of compounds was performed for activity against pathophysiological effects of hemozoin on the host, using hemozoin-laden macrophages in culture. Freshly-isolated human monocytes were suspended in medium and hemozoin at a concentration reflective of the amount of hemozoin released into circulation during schizogony. In order to maximize contact between hemozoin and monocytes, the cell preparations were centrifuged for 5 sec at 150×g. Ingestion of hemozoin is essentially complete by two hours. Cells were then washed, plated and kept in a humidified incubator. The test compounds of the present invention were added to the wells at concentrations ranging from 0 to 20 mM. Macrophage viability was determined by direct microscopic examination (gross morphology and detachment from the well), trypan blue exclusion method, and LDH release. […] At various times post-treatment (1 hour; 3 hours), cells were lysed, extensively washed and spun down (2500×g) to pellet any cellular components including hemozoin. The lysates were then treated with alkali to dissolve hemozoin to give monomeric heme (35). Monomeric heme was quantified as described above.
Human monocytes were freshly isolated from a buffy coat from a normal donor using Percoll gradients. […] Cells were solubilized at various time points and hemozoin content determined by luminol-elicited chemiluminescence.

[5] = system: freshly isolated human monocytes; test: Spontaneous and PMA-elicited oxidative burst by freshly isolated human monocytes; assay type: cell-based; settings: compound 25 uM, PMA 200 nM
Method: Furthermore, Arese and colleagues have data supporting the role of the ingested hemozoin in macrophage dysfunction. Therefore, the compounds of the present invention were evaluated to assess their ability to induce recovery of macrophage effector functions induced by hemozoin. Initially, the effect of the compounds of the present invention were evaluated on spontaneous and PMA-elicited oxidative burst by freshly isolated human monocytes. As will be elaborated upon in the Examples below, freshly isolated human monocytes were plated at 5×10^6 cells/ml, and allowed to equilibrate to 37° C. for 1 h. Compounds of the instant invention were added at a final concentration of 25 uM and PMA added to 200 nM final concentration. Cell suspension aliquots were taken at 30, 60, and 120 minutes, and 14 hours. The oxidative burst was measured by luminol-elicited chemiluminescence for 30 sec., and data expressed as counts per 0.5×10^6 cells.

SMILES: Cc1c(O)c2ccccc2c2c1sc(NCCCN1CCN(C)CC1)[n+]2C.[Cl-] [1,2-dihydro-1,4-dimethyl-2-[[3-(4-methyl-1-piperazinyl)propyl]imino]naphtho[1,2-d]thiazol-5-ol trihydrochloride]
- % depol. hemoz. (synthetic hemozoin; Table 3): 2.0%
- pIC50 [1]: 6.30
- pIC50 (P. falciparum [2]): 7.12

SMILES: Cc1cc(C=NNC(=N)N)c(O)c(C=NNC(=N)N)c1 [2,2′-[(2-hydroxy-5-methyl-1,3-phenylene)dimethylidyne]bis(hydrazinecarboximidamide)]
- % depol. hemoz. (synthetic hemozoin; Table 2): 2.3%
- pIC50 (P. falciparum [3]): 6.70
- hemozoin content of monocytes after phagocytosis of hemozoin (luminol-elicited chemiluminescence) [4]: significant reduction of hemozoin

SMILES: Cc1c(O)c2ccccc2c2c1sc(NC1CCCCC1)[n+]2CCCN(C)C.Cl.[Cl-] [2-(cyclohexylimino)-1,2-dihydro-4-methyl-1-[3-(dimethylamino)propyl]naphtho[1,2-d]thiazol-5-ol dihydrochloride]
- % depol. hemoz. (synthetic hemozoin; Table 3): 2.2%
- pIC50 [1]: 7.12
- hemozoin content of monocytes after phagocytosis of hemozoin (luminol-elicited chemiluminescence) [4]: hemozoin-dissolving ability
- oxidative burst (luminol-elicited chemiluminescence) [5]: strong inhibitor
- pIC50 (P. falciparum [2]): 7.12
